Assay results reported in a melting point compilation (Tetko et al.; mined from patent text by program, amines drawn as free bases though some values may be those of a salt).

Row | Structure (SMILES) | melting point [°C]
1 | Cc1cc(C(N)=O)ncc1C(c1c(F)ccc(F)c1F)S(=O)(=O)CCCC(F)(F)F (stereo not given) | 201 to 203
2 | COc1ccc(N2CCN(c3c(C)c(C)c4c(c3C)C(O)(Cc3ccccc3)C(C)(C)O4)CC2)cc1 (stereo not given) | 152 to 153
3 | NC(=O)[C@@H]1[C@H](Nc2nc(Nc3ccc4c(c3)CCC(NCC(F)F)CC4)ncc2Cl)[C@H]2C=C[C@@H]1C2 (stereo not given in full) | 128
4 | ICCCn1c2ccccc2c2ccccc21 | 152 to 156
5 | O=P(c1ccccc1)(c1ccccc1)c1cc(P(=O)(c2ccccc2)c2ccccc2)nc(P(=O)(c2ccccc2)c2ccccc2)n1 | 235 to 236
6 | CC(C(=O)O)c1ccc(Cc2ccccc2CC(=O)O)cc1 (stereo not given) | 135 to 137
7 | CC(O)c1ccc(-c2ccc(OCc3ccccc3)cc2)cc1 (single isomer, unassigned; (+)) | 158 to 159
8 | CC(=O)NCc1ccc(CN2CCN(c3ccc(F)cc3[N+](=O)[O-])CC2)cc1 | 94.5 to 96
9 | O=C(Nc1ccc(C(=O)N2Cc3cccn3Cc3ccccc32)c(Cl)c1)c1ccccc1-c1cccs1 | 132 to 136
10 | CCNC(=O)C1(C/C=C/c2ccccc2)c2ccccc2-c2ccccc21 | 144
11 | CCC(=NO)c1cc(Br)c(O)c(CN)c1 | 174 to 175
12 | CN1CCC(c2c[nH]c3ccc(NC(=O)c4cccnc4)nc23)CC1 | 136 to 137
13 | CNC(=NC(=O)NC1CCCCC1)N(C)C | 121 to 124
14 | CCOC(=O)C(=Cc1ccc(-c2cccc(NC)c2)cc1)OCC | 52
15 | O=C(O)C=C(Oc1ccc(OC(F)(F)F)cc1)C(=O)O | 208 to 210
16 | CC(c1cc(Cl)cc(Cl)c1O)c1cc(F)cc(Cc2cc(Cl)ccc2O)c1O (stereo not given) | 166
17 | Cn1cc2c(c(C#N)c1=O)Nc1ccccc1S2 | 292 to 295
18 | Cc1ccc(S(=O)(=O)NC(C)(C)CO)cc1NC(=O)c1cnn2c(C3CC3)cc(-c3ccc(C(F)(F)F)cc3)nc12 | 232 to 233
19 | COc1ccc(-n2nc(C(C)(C)C)cc2NC(=O)c2cccc3cc(Oc4cc(NCCN(C)C)ncn4)ccc23)cc1 | 116 to 117
20 | Cc1ccc(N(C)S(=O)(=O)c2cccs2)c2[nH]c(C3=NCC(CC(=O)O)S3)cc12 (stereo not given) | 269 to 270
21 | COc1cc2c(cc1OC)CCCC(C(=O)N1CCN(C(=S)c3cc(OC)c(OC)c(OC)c3)CC1)=C2 | 172 to 173
22 | CCCn1nc(C(C)C)c(C(=O)OCc2cccc(C(=O)c3ccccc3)c2)c1Cc1ccc(-c2ccccc2S(=O)(=O)NC(=O)OC(C)(C)C)c(F)c1 | 55 to 59

Other lines, results leading:

Row | melting point [°C] | Structure (SMILES)
23 | 216 | COc1ccc(C(=O)Nc2ccccc2)cc1NS(=O)(=O)Cc1ccccc1
24 | 274 | C=C(C)c1ccc(C2C(C(=O)c3ccc(C(C)C)cc3)=C(O)C(=O)N2c2ccc(C)nn2)cc1 (stereo not given)
25 | 207 to 208 | NC(=O)NC(=O)c1ccc2ccccc2c1
26 | 71 to 72 | COc1ccc(COC2C=C(C)C(=NN(C)C)CC(C)(C)C2OC)cc1 (stereo not given)
27 | 214 | O=C(O)COc1cc(Cl)sc1C(=O)O
28 | 148 to 150 | Cc1cc(-n2cnn(CCC3CC3)c2=O)sc1C(=O)NCc1cccnc1
29 | 129 to 130 | CC(C)C(=O)c1c(-c2ccc(F)cc2)nn2cc(C(F)(F)F)ccc12
30 | 60 to 62 | CC(O)c1nccc2ccccc12 (stereo not given)
31 | 149 to 151 | CNC(=O)C(=NOC)c1ccccc1COc1ccc2c(c1)OCC2=O
32 | 138 to 142 | CC(Cc1c[nH]c2ccccc12)(NC(=O)OC1C2CC3CC(C2)CC1C3)C(=O)NCC(=NOCC(=O)O)c1ccccc1 (stereo not given)
33 | 185 | CCC(C(=O)c1ccc(Cl)cc1)n1ncn(-c2cnc(N3CCN(c4ccc(OC)cc4)CC3)nc2)c1=O (stereo not given)
34 | 140 to 142 | CCS(=O)(=O)Nc1ccc2c(c1)S(=O)(=O)C=C(c1c(O)c3cc(F)ccc3n(CCC3CC3)c1=O)N2
35 | 89.5 to 90.5 | Cc1cc(C(O)(C(F)(F)F)C(F)(F)F)ccc1O
